Experimental data from patent publication US9079866B2, “Flap modulators” (JANSSEN PHARMACEUTICA NV, priority 2013, dated 2015).
Structures can show the parent of a compound that is named as a salt. Where two headings read alike, the source gives them in different places.

Columns and labels:
human FLAP = human FLAP (Homo sapiens (Human), UniProt P20292); assay: FLAP binding assay (HTRF format)
How it was run: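 HTRF ratio read-out; two independent plates, samples in duplicate on each, values averaged across plates.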

[1] = system: leukotriene pathway in human whole blood (LTB4 levels); assay: Human whole blood assay (A23187-stimulated LTB4); format: cell-based; details: Homo sapiens, human whole blood diluted 1:1, A23187-stimulated; read-out: LTB4 IC50 1:1
How it was run: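 Blood (heparin) diluted 1:1 RPMI; compound pre-incubation 15 min, 37° Celsius; A23187 7 μg/mL, 30 min, 37° Celsius; plasma LTB4 by commercial kit. IC50 via 4-parameter equation.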

[2] = read-out: FLAP Binding wild type HTRF Ki

Chain of human FLAP (P20292 whole entry): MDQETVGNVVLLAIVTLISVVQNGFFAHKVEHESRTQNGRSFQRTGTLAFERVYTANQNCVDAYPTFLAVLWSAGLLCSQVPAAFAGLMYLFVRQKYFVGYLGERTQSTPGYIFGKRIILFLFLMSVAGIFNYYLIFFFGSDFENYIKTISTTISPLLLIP

Ki (human FLAP; wild type FLAP, HTRF format) [nM]	IC50 [1] [nM]	SMILES	Ki (human FLAP; [2]) [nM]
62.7	842	Nc1cnc(-c2ccc(-c3cccnc3O[C@H]3CC[C@H](N)CC3)cc2F)cn1 [Example 652, 5-(4-{2-[(trans-4-Aminocyclohexyl)oxy]pyridin-3-yl}-2-fluorophenyl)pyrazin-2-amine formic acid salt]	
17.3	527	Nc1cnc(-c2ccc(-c3cccnc3OC3CCOCC3)cc2F)cn1 [Example 653, 5-{2-Fluoro-4-[2-(tetrahydro-2H-pyran-4-yloxy)pyridin-3-yl]phenyl}pyrazin-2-amine]	
130	1050	Nc1ncc(-c2ccc(-c3cccnc3OC3CCOCC3)cc2F)cn1 [Example 654, 5-{2-Fluoro-4-[2-(tetrahydro-2H-pyran-4-yloxy)pyridin-3-yl]phenyl}pyrimidin-2-amine]	
83.3	> 10000	Nc1ccc(-c2ccc(-c3ccccc3S(=O)(=O)N3CCOCC3)cc2F)cn1 [Example 660, 5-(3-Fluoro-2′-(morpholinosulfonyl)-[1,1′-biphenyl]-4-yl)pyridin-2-amine]	
2.6	22.4	CC(C)(CO)NS(=O)(=O)c1ccccc1-c1ccc(-c2ccc(N)nc2)c(F)c1 [Example 665, 4′-(6-Aminopyridin-3-yl)-3′-fluoro-N-(1-hydroxy-2-methylpropan-2-yl)-[1,1′-biphenyl]-2-sulfonamide]	
6	39.6	CC(C)(CO)NS(=O)(=O)c1ccccc1-c1ccc(-c2cnc(N)c(F)c2)c(F)c1 [Example 667, 4′-(6-Amino-5-fluoropyridin-3-yl)-3′-fluoro-N-(1-hydroxy-2-methylpropan-2-yl)-[1,1′-biphenyl]-2-sulfonamide]	
4	106	C[C@@H]([C@@H](O)c1ccccc1)N(C)S(=O)(=O)c1ccccc1-c1ccc(-c2cnc(N)c(F)c2)c(F)c1 [Example 669, 4′-(6-Amino-5-fluoropyridin-3-yl)-3′-fluoro-N-((1S,2S)-1-hydroxy-1-phenylpropan-2-yl)-N-methyl-[1,1′-biphenyl]-2-sulfonamide]	
134	101	C[C@@H](O)CNS(=O)(=O)c1ccccc1-c1cnc(-c2cnc(N)nc2)c(F)c1 [Example 673, 2-[6-(2-Aminopyrimidin-5-yl)-5-fluoropyridin-3-yl]-N-[(2R)-2-hydroxypropyl]benzenesulfonamide]	
2.4	17.4	CCNS(=O)(=O)c1cc(C(F)(F)F)ccc1-c1cnc(-c2cnc(N)nc2)c(F)c1 [Example 674, 2-[6-(2-Aminopyrimidin-5-yl)-5-fluoropyridin-3-yl]-N-ethyl-5-(trifluoromethyl)benzenesulfonamide]	
0.7	55.1	CC(C)(C)NS(=O)(=O)c1ccccc1-c1cnc(-c2cnc(N)nc2)c(F)c1 [Example 675, 2-[6-(2-Aminopyrimidin-5-yl)-5-fluoropyridin-3-yl]-N-tert-butylbenzenesulfonamide]	
234	3710	Nc1ncc(-c2ccc(-c3ccc(C(F)(F)F)cc3CN3CCOCC3)cn2)cn1 [Example 676, 5-{5-[2-(Morpholin-4-ylmethyl)-4-(trifluoromethyl)phenyl]pyridin-2-yl}pyrimidin-2-amine]	
52.2	106	Nc1ncc(-c2ccc(-c3ccccc3S(=O)(=O)N3CCCCCC3)cn2)cn1 [Example 681, 5-{5-[2-(Azepan-1-ylsulfonyl)phenyl]pyridin-2-yl}pyrimidin-2-amine trifluoroacetic acid salt]	
224	264	Nc1ncc(-c2ccc(-c3ccccc3S(=O)(=O)N3CCC(F)(F)CC3)cn2)cn1 [Example 682, 5-(5-{2-[(4,4-Difluoropiperidin-1-yl)sulfonyl]phenyl}pyridin-2-yl)pyrimidin-2-amine trifluoroacetic acid salt]	
602	280	CCNS(=O)(=O)c1ccccc1-c1ccc(-c2cnc(N)nc2)nc1 [Example 683, 2-[6-(2-Aminopyrimidin-5-yl)pyridin-3-yl]-N-ethylbenzenesulfonamide trifluoroacetic acid salt]	
46.3	134	Nc1ncc(-c2ccc(-c3ccccc3S(=O)(=O)NC(C3CC3)C3CC3)cn2)cn1 [Example 684, 2-[6-(2-Aminopyrimidin-5-yl)pyridin-3-yl]-N-(dicyclopropylmethyl)benzenesulfonamide trifluoroacetic acid salt]	
52.3	115	C[C@H](NS(=O)(=O)c1ccccc1-c1ccc(-c2cnc(N)nc2)nc1)C(F)(F)F [Example 685, 2-[6-(2-Aminopyrimidin-5-yl)pyridin-3-yl]-N-[(1S)-2,2,2-trifluoro-1-methylethyl]benzenesulfonamide trifluoroacetic acid salt]	
334	1490	C[C@@H](NS(=O)(=O)c1ccccc1-c1ccc(-c2cnc(N)nc2)nc1)C(F)(F)F [Example 686, 2-[6-(2-Aminopyrimidin-5-yl)pyridin-3-yl]-N-[(1R)-2,2,2-trifluoro-1-methylethyl]benzenesulfonamide trifluoroacetic acid salt]	
740	3550	Nc1ncc(-c2ccc(-c3ccccc3S(=O)(=O)N3CCNC(=O)C3)cn2)cn1 [Example 687, 4-({2-[6-(2-Aminopyrimidin-5-yl)pyridin-3-yl]phenyl}sulonyl)piperazin-2-one]	
696	1180	C[C@H](O)CNS(=O)(=O)c1ccccc1-c1ccc(-c2cnc(N)nc2)nc1 [Example 688, 2-[6-(2-Aminopyrimidin-5-yl)pyridin-3-yl]-N-[(2S)-2-hydroxypropyl]benzenesulfonamide]	
485	787	C[C@@H](O)CNS(=O)(=O)c1ccccc1-c1ccc(-c2cnc(N)nc2)nc1 [Example 689, 2-[6-(2-Aminopyrimidin-5-yl)pyridin-3-yl]-N-[(2R)-2-hydroxypropyl]benzenesulfonamide]	
177	118	Nc1ncc(-c2ccc(-c3ccc(C(F)(F)F)cc3S(=O)(=O)NCCO)cn2)cn1 [Example 690, 2-[6-(2-Aminopyrimidin-5-yl)pyridin-3-yl]-N-(2-hydroxyethyl)-5-(trifluoromethyl)benzenesulfonamide]	
53.3	110	CCNS(=O)(=O)c1cc(C(F)(F)F)ccc1-c1ccc(-c2cnc(N)nc2)nc1 [Example 692, 2-[6-(2-Aminopyrimidin-5-yl)pyridin-3-yl]-N-ethyl-5-(trifluoromethyl)benzenesulfonamide trifluoroacetic acid salt]	
49.5	103	CC(C)(C)NS(=O)(=O)c1ccccc1-c1ccc(-c2cnc(N)nc2)nc1 [Example 693, 2-[6-(2-Aminopyrimidin-5-yl)pyridin-3-yl]-N-tert-butylbenzenesulfonamide]	
676	1010	C[C@H](CO)NS(=O)(=O)c1ccccc1-c1ccc(-c2cnc(N)nc2)nc1 [Example 694, 2-[6-(2-Aminopyrimidin-5-yl)pyridin-3-yl]-N-[(1R)-2-hydroxy-1-methylethyl]benzenesulfonamide]	
8.4	336	N#Cc1nc(-c2ccc(-c3ccccc3Oc3nccc(N)n3)cc2F)cnc1N [Example 695, 3-Amino-6-{2′-[(4-aminopyrimidin-2-yl)oxy]-3-fluorobiphehenyl-4-yl}pyrazine-2-carbonitrile trifluoroacetic acid salt]	
~250	3270	Nc1cnc(-c2ccc(-c3ccc(Br)cc3F)cc2F)cn1 [Example 696, 5-(4′-Bromo-2′,3-difluorobiphenyl-4-yl)pyrazin-2-amine]	
8.7	112	COc1c(-c2ccc(C(F)(F)F)cc2)ccc(-c2cnc(N)cn2)c1F [Example 698, 5-(3-fluoro-2-methoxy-4′-(trifluoromethyl)-[1,1′-biphenyl]-4-yl)pyrazin-2-amine]	
102	191	N#Cc1nc(N)cnc1-c1ccc(-c2ccccc2S(=O)(=O)N2CCS(=O)(=O)CC2)cc1F [Example 704, 6-Amino-3-{2′-[(1,1-dioxidothiomorpholin-4-yl)sulfonyl]-3-fluorobiphenyl-4-yl}pyrazine-2-carbonitrile]	
86.9	289	CNC(=O)C1CN(S(=O)(=O)c2ccccc2-c2ccc(-c3cnc(N)nc3)c(F)c2)C1 [Example 705, 1-{[4′-(2-Aminopyrimidin-5-yl)-3′-fluorobiphenyl-2-yl]sulfonyl}-N-methylazetidine-3-carboxamide]	
79.6	362	N#Cc1nc(N)cnc1-c1ccc(-c2ccccc2S(=O)(=O)NCCO)cc1F [Example 706, 4′-(5-Amino-3-cyanopyrazin-2-yl)-3′-fluoro-N-(2-hydroxyethyl)biphenyl-2-sulfonamide]	

SMILES	Ki (human FLAP; wild type FLAP, HTRF format) [nM]	IC50 [1] [nM]	Ki (human FLAP; [2]) [nM]
Nc1ccc(-c2ccc(-c3ccccc3S(=O)(=O)N3C[C@@H]4C[C@H]3CO4)cc2F)cn1 [Example 663, 5-(2′-((1S,4S)-2-Oxa-5-azabicyclo[2.2.1]heptan-5-ylsulfonyl)-3-fluoro-[1,1′-biphenyl]-4-yl)pyridin-2-amine]	5.8	34.7	
Nc1ncc(-c2ccc(-c3ccccc3S(=O)(=O)N3CCCC(F)(F)C3)cn2)cn1 [Example 679, 5-(5-{2-[(3,3-Difluoropiperidin-1-yl)sulfonyl]phenyl}pyridin-2-yl)pyrimidin-2-amine trifluoroacetic acid salt]		205	132
Nc1ncc(-c2ccc(-c3ccccc3S(=O)(=O)N3CCC(F)(F)C3)cn2)cn1 [Example 680, 5-(5-{2-[(3,3-Difluoropyrrolidin-1-yl)sulfonyl]phenyl}pyridin-2-yl)pyrimidin-2-amine trifluoroacetic acid salt]		1050	610
